Results as given in patent US20230373985A1 (Origenis Gmbh, priority 2020, published 2023).

Key:
[1] = biological target: T1, G2019S human LRRK2, catalytic site (Homo sapiens, UniProt Q5S007, G2019S); experiment: TR-FRET LanthaScreen Eu Kinase Binding Assay, LRRK2 G2019S; conditions: LRRK2(G2019); one range stated for wt and G2019; read-out: IC50, Activity Toward LRRK2(G2019)
T1 construct: G2019S human LRRK2, catalytic site; purchased ThermoFisher
How it was run: (§1)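 Kinase Buffer A holding, as final levels, 8 nM full-length NUAK1, 2 nM Eu-anti-His antibody and 5 nM Tracer 236, or 5 nM LRRK2 catalytic site (wt or G2019S), 2 nM Eu-anti-GST and 10 nM Tracer 236. Compound added, then 1 h at room temperature before TR-FRET ratio readout.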

[2] = biological target: T2, wt human LRRK2, catalytic site (Homo sapiens, UniProt Q5S007); experiment: TR-FRET LanthaScreen Eu Kinase Binding Assay, LRRK2 wt; conditions: one range stated for wt and G2019, read-out: IC50, Activity Toward LRRK2(Wt)
T2 construct: 5 nM wt human LRRK2, catalytic site; purchased ThermoFisher
T2 sequence (Q5S007 970-2527 limits assumed): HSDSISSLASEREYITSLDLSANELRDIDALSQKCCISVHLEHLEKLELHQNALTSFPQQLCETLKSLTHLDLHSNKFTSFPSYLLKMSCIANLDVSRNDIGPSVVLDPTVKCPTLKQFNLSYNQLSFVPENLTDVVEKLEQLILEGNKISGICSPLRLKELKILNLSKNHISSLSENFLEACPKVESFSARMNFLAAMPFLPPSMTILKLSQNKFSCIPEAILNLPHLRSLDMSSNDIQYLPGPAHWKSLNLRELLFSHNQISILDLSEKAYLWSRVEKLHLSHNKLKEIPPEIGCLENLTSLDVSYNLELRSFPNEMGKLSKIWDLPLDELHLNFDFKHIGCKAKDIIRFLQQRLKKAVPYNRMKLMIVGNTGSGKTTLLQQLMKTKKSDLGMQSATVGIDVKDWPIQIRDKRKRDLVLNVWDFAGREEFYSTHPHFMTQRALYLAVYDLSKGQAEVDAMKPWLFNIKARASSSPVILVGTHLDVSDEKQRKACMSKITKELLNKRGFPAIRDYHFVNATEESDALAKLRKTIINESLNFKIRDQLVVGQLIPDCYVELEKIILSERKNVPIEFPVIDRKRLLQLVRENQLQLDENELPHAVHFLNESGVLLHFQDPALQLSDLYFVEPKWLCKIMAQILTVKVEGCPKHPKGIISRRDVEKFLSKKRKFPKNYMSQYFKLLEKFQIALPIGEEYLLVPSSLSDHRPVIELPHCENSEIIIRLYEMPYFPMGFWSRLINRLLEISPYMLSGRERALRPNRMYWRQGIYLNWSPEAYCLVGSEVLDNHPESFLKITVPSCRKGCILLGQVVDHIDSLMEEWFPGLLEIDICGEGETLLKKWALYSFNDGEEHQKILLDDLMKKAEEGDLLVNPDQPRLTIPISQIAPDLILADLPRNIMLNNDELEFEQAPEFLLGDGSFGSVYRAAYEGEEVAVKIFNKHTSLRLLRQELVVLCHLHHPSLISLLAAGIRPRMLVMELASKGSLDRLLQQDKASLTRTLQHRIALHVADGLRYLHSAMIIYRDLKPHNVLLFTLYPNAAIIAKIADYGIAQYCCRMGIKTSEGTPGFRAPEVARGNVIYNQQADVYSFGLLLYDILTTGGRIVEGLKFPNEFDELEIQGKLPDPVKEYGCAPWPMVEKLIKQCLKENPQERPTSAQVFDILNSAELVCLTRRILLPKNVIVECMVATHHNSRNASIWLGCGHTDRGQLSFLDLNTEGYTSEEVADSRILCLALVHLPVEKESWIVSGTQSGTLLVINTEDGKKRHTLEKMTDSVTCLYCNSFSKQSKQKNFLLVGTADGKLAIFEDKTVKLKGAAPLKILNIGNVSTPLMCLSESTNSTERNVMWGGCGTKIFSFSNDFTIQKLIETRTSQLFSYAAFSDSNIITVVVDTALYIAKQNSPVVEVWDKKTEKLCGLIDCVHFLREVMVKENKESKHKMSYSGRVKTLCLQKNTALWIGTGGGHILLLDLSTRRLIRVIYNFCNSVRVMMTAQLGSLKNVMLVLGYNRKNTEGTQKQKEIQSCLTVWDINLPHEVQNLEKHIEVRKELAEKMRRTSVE
How it was run: as §1

[3] = biological target: T3, wt human TYK2, catalytic site (Homo sapiens, UniProt P29597); experiment: HTRF KinEASE assay, TYK2; assay type: biochemical; conditions: 1 μM ATP; read-out: IC50, Activity Toward TYK2
T3 construct: wt human TYK2, catalytic site; purchased SignalChem
T3 sequence (P29597 897-1176 limits assumed): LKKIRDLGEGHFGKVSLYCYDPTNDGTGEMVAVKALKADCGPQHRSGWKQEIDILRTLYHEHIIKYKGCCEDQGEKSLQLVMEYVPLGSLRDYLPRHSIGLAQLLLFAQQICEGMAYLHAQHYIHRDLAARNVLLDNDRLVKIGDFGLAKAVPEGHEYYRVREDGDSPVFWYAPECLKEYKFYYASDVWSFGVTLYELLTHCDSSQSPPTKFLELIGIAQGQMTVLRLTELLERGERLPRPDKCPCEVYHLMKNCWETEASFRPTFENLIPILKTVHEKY
How it was run: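 Kinase reaction run at room temperature for at least 30 min: 2 nM TYK2 with 1 μM ATP, or 1 nM JAK2 with 100 μM ATP, each with 1 μM biotin-TK substrate. Phosphorylation detected by HTRF (60 min antibody/XL665) and evaluated from emission ratios.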

[4] = biological target: T4, wt human NUAK1, full length (Homo sapiens, UniProt O60285); experiment: TR-FRET LanthaScreen Eu Kinase Binding Assay, NUAK1; conditions: read-out: IC50, Activity Toward NUAK1
T4 construct: 8 nM wt human NUAK1, full length (ThermoFisher/USA); purchased ThermoFisher
T4 sequence (O60285 1-661): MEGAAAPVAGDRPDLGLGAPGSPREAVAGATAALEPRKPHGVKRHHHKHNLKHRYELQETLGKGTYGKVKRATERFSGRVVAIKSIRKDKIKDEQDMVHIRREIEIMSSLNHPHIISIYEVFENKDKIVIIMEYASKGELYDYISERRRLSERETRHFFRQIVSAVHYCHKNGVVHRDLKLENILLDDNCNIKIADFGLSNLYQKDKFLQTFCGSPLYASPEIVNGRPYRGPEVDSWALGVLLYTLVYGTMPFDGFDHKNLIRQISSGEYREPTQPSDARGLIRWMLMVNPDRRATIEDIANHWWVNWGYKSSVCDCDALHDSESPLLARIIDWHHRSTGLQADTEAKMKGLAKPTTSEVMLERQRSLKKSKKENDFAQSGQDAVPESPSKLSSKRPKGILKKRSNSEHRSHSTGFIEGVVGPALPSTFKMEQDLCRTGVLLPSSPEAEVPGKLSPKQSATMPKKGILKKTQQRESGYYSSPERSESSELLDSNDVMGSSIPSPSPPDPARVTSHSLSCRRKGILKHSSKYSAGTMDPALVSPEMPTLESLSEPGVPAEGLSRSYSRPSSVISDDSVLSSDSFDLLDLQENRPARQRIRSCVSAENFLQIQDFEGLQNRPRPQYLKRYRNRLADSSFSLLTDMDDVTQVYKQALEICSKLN
Procedure: The basic protocol for TR-FRET LanthaScreen Eu Kinase Binding Assay inhibitor studies were performed as follows. LanthaScreen Kinase Binding Assays (ThermoFisher/USA) to evaluate inhibitors were performed by addition of 5 μL of test compound in corresponding DMSO dilutions/5 μl of kinase/antibody mixture, 5 μL of tracer into 384 well small volume plates. After incubation for 1 hour at room temperature, plates were read. Data analysis of emission ratios was according LanthaScreen Eu Kinase Binding Assay protocol.
Kinase and assay components were adjusted to final concentrations according to kit protocol. For LRRK2: 5 nM wt human LRRK2, catalytic site, or G2019S human LRRK2, catalytic site (ThermoFisher/USA), 2 nM Eu-Anti-GST Antibody, 10 nM Kinase Tracer 236 in 1× Kinase Buffer A. For NUAK1: 8 nM wt human NUAK1, full length (ThermoFisher/USA), 2 nM Eu-Anti-His Antibody, 5 nM Kinase Tracer 236 in 1× Kinase Buffer A.

[5] = biological target: T5, wt human JAK1, catalytic site (Homo sapiens, UniProt P23458); experiment: HTRF KinEASE assay, JAK1; assay type: biochemical; conditions: 2.5 μM ATP; read-out: IC50, Activity Toward JAK1
T5 construct: wt human JAK1, catalytic site; purchased ThermoFisher
T5 sequence (P23458 875-1153 limits assumed): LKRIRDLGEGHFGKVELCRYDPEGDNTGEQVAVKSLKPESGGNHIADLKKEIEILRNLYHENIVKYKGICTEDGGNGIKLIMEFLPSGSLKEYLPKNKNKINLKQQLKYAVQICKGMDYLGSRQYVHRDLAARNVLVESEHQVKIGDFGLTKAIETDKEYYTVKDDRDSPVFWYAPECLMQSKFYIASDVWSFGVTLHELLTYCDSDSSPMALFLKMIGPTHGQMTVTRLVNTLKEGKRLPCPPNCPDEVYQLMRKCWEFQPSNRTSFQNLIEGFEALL
How it was run: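 Compounds in DMSO dilution were mixed with kinase, biotin-TK substrate and ATP and reacted for ≥30 min at room temperature. Detection reagents (antibody, streptavidin-XL665) were read 60 min later as HTRF, with emission ratios analysed per KinEASE protocol.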

T1 sequence (Q5S007 970-2527 G2019S limits assumed): as the sequence (Q5S007 970-2527 limits assumed) above, with G1050S counted along it

SMILES: Cc1cc(Nc2cn(-c3c(F)cccc3F)nc2C(N)=O)ncn1 [compound 4, 1-(2,6-difluorophenyl)-4-((6-methylpyrimidin-4-yl)amino)-1H-pyrazole-3-carboxamide]
- IC50 [1]: 100 to 1000 nM
- IC50 [2]: 100 to 1000 nM
- IC50 [3]: 100 to 1000 nM
- IC50 [4]: 100 to 1000 nM

SMILES: NC(=O)c1nn(-c2c(F)cccc2F)cc1Nc1ccccn1 [compound 7, 1-(2,6-difluorophenyl)-4-(pyridin-2-ylamino)-1H-pyrazole-3-carboxamide]
- IC50 [1]: 100 to 1000 nM
- IC50 [2]: 100 to 1000 nM
- IC50 [3]: 100 to 1000 nM
- IC50 [4]: 100 to 1000 nM

SMILES: Cc1cc(Nc2cn(-c3c(F)cccc3F)nc2C(N)=O)nc(N)n1 [compound 8, 4-((2-amino-6-methylpyrimidin-4-yl)amino)-1-(2,6-difluorophenyl)-1H-pyrazole-3-carboxamide]
- IC50 [5]: 100 to 1000 nM
- IC50 [1]: 100 to 1000 nM
- IC50 [2]: 100 to 1000 nM
- IC50 [3]: 100 to 1000 nM
- IC50 [4]: 10 to 100 nM

SMILES: NC(=O)c1nn(-c2c(F)cccc2F)cc1Nc1ccc(C(=O)NCC(F)(F)F)cc1 [compound 14, 1-(2,6-difluorophenyl)-4-((4-((2,2,2-trifluoroethyl)carbamoyl)phenyl)amino)-1H-pyrazole-3-carboxamide]
- IC50 [5]: 100 to 1000 nM
- IC50 [1]: 100 to 1000 nM
- IC50 [2]: 100 to 1000 nM
- IC50 [3]: 10 to 100 nM
- IC50 [4]: 10 to 100 nM

SMILES: CC(C)(C)NC(=O)c1ccc(Nc2cn(-c3c(F)cccc3F)nc2C(N)=O)cc1 [compound 15, 4-((4-(tert-butylcarbamoyl)phenyl)amino)-1-(2,6-difluorophenyl)-1H-pyrazole-3-carboxamide]
- IC50 [5]: 100 to 1000 nM
- IC50 [1]: 100 to 1000 nM
- IC50 [2]: 100 to 1000 nM
- IC50 [3]: 10 to 100 nM
- IC50 [4]: 100 to 1000 nM

SMILES: CCNC(=O)c1ccc(Nc2cn(-c3c(F)cccc3F)nc2C(N)=O)cc1 [compound 16, 1-(2,6-difluorophenyl)-4-((4-(ethylcarbamoyl)phenyl)amino)-1H-pyrazole-3-carboxamide]
- IC50 [5]: 100 to 1000 nM
- IC50 [1]: 100 to 1000 nM
- IC50 [2]: 100 to 1000 nM
- IC50 [3]: 10 to 100 nM
- IC50 [4]: 100 to 1000 nM

SMILES: Cc1nc2cc(Nc3cn(-c4c(F)cccc4Cl)nc3C(N)=O)ccc2n1C [compound 44, 1-(2-chloro-6-fluorophenyl)-4-((1,2-dimethyl-1H-benzo[d]imidazol-5-yl)amino)-1H-pyrazole-3-carboxamide]
- IC50 [5]: 100 to 1000 nM
- IC50 [3]: 10 to 100 nM
- IC50 [4]: 100 to 1000 nM

SMILES: CN1CCCN(C(=O)c2ccc(Nc3cn(-c4c(Cl)cccc4Cl)nc3C(N)=O)cc2)CC1 [compound 91, 1-(2,6-dichlorophenyl)-4-((4-(4-methyl-1,4-diazepane-1-carbonyl)phenyl)amino)-1H-pyrazole-3-carboxamide]
- IC50 [5]: 10 to 100 nM
- IC50 [3]: < 10 nM
- IC50 [4]: 100 to 1000 nM

SMILES: CN(C)CCn1cnnc1-c1ccc(Nc2cn(-c3c(Cl)cccc3Cl)nc2C(N)=O)cc1 [compound 214, 1-(2,6-dichlorophenyl)-4-((4-(4-(2-(dimethylamino)ethyl)-4H-1,2,4-triazol-3-yl)phenyl)amino)-1H-pyrazole-3-carboxamide]
- IC50 [5]: 10 to 100 nM
- IC50 [3]: < 10 nM
- IC50 [4]: 100 to 1000 nM

SMILES: CN1CCC(Oc2ccc(Nc3cn(-c4c(Cl)cccc4Cl)nc3C(N)=O)cc2)CC1 [compound 237, 1-(2,6-dichlorophenyl)-4-((4-((1-methylpiperidin-4-yl)oxy)phenyl)amino)-1H-pyrazole-3-carboxamide]
- IC50 [5]: 100 to 1000 nM
- IC50 [3]: < 10 nM
- IC50 [4]: 100 to 1000 nM

SMILES: CN(C)CCn1ccnc1-c1ccc(Nc2cn(-c3c(Cl)cccc3Cl)nc2C(N)=O)cc1 [compound 251, 1-(2,6-dichlorophenyl)-4-((4-(1-(2-(dimethylamino)ethyl)-1H-imidazol-2-yl)phenyl)amino)-1H-pyrazole-3-carboxamide]
- IC50 [5]: 100 to 1000 nM
- IC50 [3]: 10 to 100 nM
- IC50 [4]: 100 to 1000 nM

SMILES: CN(C)[C@H]1CCN(C(=O)c2ccc(Nc3cn(-c4c(Cl)cccc4Cl)nc3C(N)=O)cc2)C1 [compound 314, (S)-1-(2,6-dichlorophenyl)-4-((4-(3-(dimethylamino)pyrrolidine-1-carbonyl)phenyl)amino)-1H-pyrazole-3-carboxamide]
- IC50 [5]: 10 to 100 nM
- IC50 [3]: < 10 nM
- IC50 [4]: 100 to 1000 nM

SMILES: NC(=O)c1nn(-c2c(Cl)cccc2Cl)cc1Nc1ccc(C(=O)N2CC[C@H](N)C2)cc1 [compound 319, (S)-4-((4-(3-aminopyrrolidine-1-carbonyl)phenyl)amino)-1-(2,6-dichlorophenyl)-1H-pyrazole-3-carboxamide]
- IC50 [5]: 10 to 100 nM
- IC50 [3]: 10 to 100 nM
- IC50 [4]: 100 to 1000 nM

SMILES: COCCc1ncnn1-c1ccc(Nc2cn(-c3c(Cl)cccc3Cl)nc2C(N)=O)cc1 [compound 327, 1-(2,6-dichlorophenyl)-4-((4-(5-(2-methoxyethyl)-1H-1,2,4-triazol-1-yl)phenyl)amino)-1H-pyrazole-3-carboxamide]
- IC50 [5]: 10 to 100 nM
- IC50 [3]: 10 to 100 nM
- IC50 [4]: 100 to 1000 nM

SMILES: NC(=O)c1nn(-c2c(Cl)cccc2Cl)cc1Nc1ccc(C(=O)N2CC[C@H](N3CCCC3)C2)cc1 [compound 332, (S)-4-((4-([1,3′-bipyrrolidine]-1′-carbonyl)phenyl)amino)-1-(2,6-dichlorophenyl)-1H-pyrazole-3-carboxamide]
- IC50 [5]: 100 to 1000 nM
- IC50 [3]: < 10 nM
- IC50 [4]: 100 to 1000 nM

SMILES: NC(=O)c1nn(-c2c(Cl)cccc2Cl)cc1Nc1ccc(-c2nc(C(F)(F)F)cn2CCO)cc1 [compound 338, 1-(2,6-dichlorophenyl)-4-((4-(1-(2-hydroxyethyl)-4-(trifluoromethyl)-1H-imidazol-2-yl)phenyl)amino)-1H-pyrazole-3-carboxamide]
- IC50 [5]: 100 to 1000 nM
- IC50 [3]: < 10 nM
- IC50 [4]: 100 to 1000 nM

SMILES: NC(=O)c1nn(-c2c(Cl)cccc2Cl)cc1Nc1cnc(C(=O)N2CC[C@@H](F)C2)cn1 [compound 403, (R)-1-(2,6-dichlorophenyl)-4-((5-(3-fluoropyrrolidine-1-carbonyl)pyrazin-2-yl)amino)-1H-pyrazole-3-carboxamide]
- IC50 [3]: 100 to 1000 nM
- IC50 [4]: 100 to 1000 nM

SMILES: NC(=O)c1nn(-c2c(Cl)cccc2Cl)cc1Nc1cn[nH]c1 [compound 407, 4-((1H-pyrazol-4-yl)amino)-1-(2,6-dichlorophenyl)-1H-pyrazole-3-carboxamide]
- IC50 [5]: 100 to 1000 nM
- IC50 [3]: 100 to 1000 nM
- IC50 [4]: 100 to 1000 nM

SMILES: NC(=O)c1nn(-c2c(Cl)cccc2Cl)cc1Nc1ccc(OC2CCNCC2)cc1 [compound 424, 1-(2,6-dichlorophenyl)-4-((4-(piperidin-4-yloxy)phenyl)amino)-1H-pyrazole-3-carboxamide]
- IC50 [5]: 100 to 1000 nM
- IC50 [3]: 10 to 100 nM
- IC50 [4]: 100 to 1000 nM
